Source: article PMC8148468, “Shikimic acid protects skin cells from UV-induced senescence through activation of the NAD+-dependent deacetylase SIRT1” (Aging (Albany NY), 2021)

What was measured:
[1] = test system: primary human dermal fibroblasts (HDFs); conditions: female, human
From the text: In our efforts to identify novel factors that could prevent skin cell senescence, we developed a screening process to identify new modulators of the protective role of sirtuins in UV-induced senescence. For this purpose, we established a culture of primary human dermal fibroblasts (HDFs). […] Our first step in the screening was to establish the optimal concentrations of these compounds in the case of HDFs. […] Once established, we took these parameters into account to decide the specific working range of concentrations for each compound.
Human dermal fibroblasts (HDFs) (Promocell, Germany) from 40-year old Caucasian women were used as the in vitro model for compound viability and efficacy screening. Cells were cultured in Dulbecco's modified eagle medium (DMEM) low glucose (Biowest, France) supplemented with 10% fetal bovine serum (FBS) (Capricorn Scientific, Germany) and 10 U/mL penicillin/streptomycin (Biowest, France) in a humidified incubator at 37° C and 5% CO2. For cell passage, cells at 80% confluence were trypsinized and plated at 60% confluence. Cells between passage 13 and 18 were used for the assays. For the SIRT1 in vitro assay, HEK293 cells (ATCC, USA), used to transfect and immunoprecipitate SIRT1 protein, were grown in DMEM high glucose (Thermo Fisher Scientific, USA), supplemented with 10% FBS in a humidified incubator at 37° C and 5% CO2. The following experiments were all performed in triplicate.
The protocol for senescence induction using UVB irradiation is described in the Supplementary Methods. SA-β-Gal staining, WST-1, sulforhodamine B (SRB) and trypan blue assays were performed as previously described. For the siRNA experiments, the protocol for senescence induction using UVB irradiation was the same as in the Supplementary Methods. Specific siRNA (Horizon discovery, UK) for SIRT1, SIRT2, SIRT6, BiP or scramble siRNA were incubated for 6 hours before each irradiation step.

[2] = test system: IL-6; test: IL-6 mRNA levels (qPCR); assay type: cell-based, human; conditions: UVB-irradiated HDF, SA 10, 25, 50 mM -/+ EX-527 1 μM
Description: Figure 3 (A) Schematic representation of the protocol for senescence induction using UVB irradiation and study of EX527 involvement in the effect of Shikimic acid. Cells were treated with or without shikimic acid -/+ EX-527 from day 1 until day 7 after seeding, irradiated with UVB on days 2 and 5 and harvested for analysis on day 7. (B) Phase-contrast (left column) and bright field (right column) microscope images of β-Gal staining showing non-irradiated cells non-treated and treated with shikimic acid (10, 25 and 50 mM), UVB-irradiated cells non-treated and treated with shikimic acid (10, 25 and 50 mM), shikimic acid (10, 25 and 50 mM) + EX-527 1 μM and EX-527 1 μM. […] SIRT1 activity was then evaluated by analyzing acetylation of H3K9, H4K16 and p53K382 by Western blot. […]
RNA was extracted from cell pellets using the Total RNA Purification Kit (Norgen, Canada), according to the manufacturer’s protocol. Extracted RNA was quantified using a NanoDrop® ND-1000 UV-Vis Spectrophotometer (Thermo Fisher Scientific, USA) and 300 ng of RNA were retrotranscribed to cDNA using the PrimeScriptTM RT reagent kit (Takara Bio Inc., Japan). cDNA was diluted 1/10 in ultrapure water and qPCR mix was prepared by adding cDNA (12 ng), SYBR green supermix (Bio Rad, USA), forward and reverse primers (0.2μM). […] The results were analyzed with Bio-Rad CFX Manager software. […]

[3] = test system: H3K9ac (the target of SIRT1, SIRT2 and SIRT6); test: Sirtuin activity assay in HDF: H3K9ac levels (Western blot); assay type: cell-based, human; conditions: HDF treated 24h;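 further: screen looked for decreased acetylation as a sign of sirtuin activation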
Description: Figure 1 (A) Schematic representation of the compound testing for sirtuin activity evaluation in HDF. Cells were treated with or without the compounds for 24h and harvested for analysis. […] (C) Western Blot analysis and (D) quantification of H4K16ac and H3K9ac levels in cells treated with Resveratrol or Shikimic acid at the indicated concentrations. H4K16 and H3K9 levels were normalized to H4 and H3 levels respectively. Student T-test, *p<0.05, **p<0.01, ***p<0.001.
HDFs were plated in 100x20 mm2 cell culture plates and after 24h, fresh cell culture medium containing the compounds was added. After 24h, cells were detached with cell scrapers, harvested, and processed for qPCR or western blot.
Protein levels were analyzed as previously described. Cells were directly lysed in 1x Laemmli Buffer (Bio-Rad, USA), incubated at 95° C and centrifuged. Supernatant was subjected to SDS-polyacrylamide gel electrophoresis, and successive steps were performed as described. The list of antibodies used is included in Supplementary Table 2.

For O=C(O)C1=C[C@@H](O)[C@@H](O)[C@H](O)C1 [Shikimic acid], the “LD50” value [1] was 58.44 mM, the “Max. non-cyt. doses” value [1] was 25 mM and the “IL-6 mRNA levels” value [2] was “induced a reduction in the levels of expression of the inflammatory cytokine IL-6”. The “effect on H3K9ac levels” value [3] was “induced a similar effect on both targets”.
